In one test the test system is leucine-DH. The test is described as follows: deamination of L-norleucine and L-leucine using leucine-DH, NADH formation at 340 nm. It is filed as biochemical. Particulars: 10 mM substrate; 10 mM NAD+; pH 8.5; UV absorption at 340 nm. The method, then:
Deamination of L-norleucine and L-leucine (both commercial standards) was performed using a purified leucine-DH. Reactions contained 10 mM substrate, 10 mM NAD+ and 5 µl leucine-DH in a final volume of 1 ml Tris-HCl (pH 8.5, 0.1 M). Oxidation of the amino acids was successful as indicated by increasing UV absorption at 340 nm, corresponding to (concomitant) formation of NADH (Figure 3).

For another test, the target named is T1, CYPBSß (Bacillus subtilis, UniProt O31440).
T1 construct: made in house
The test is described as follows: conversion of fatty acid substrates with CYPBSß, oxidant H2O2. The format is biochemical. Particulars: for 2a-d: H2O2; for Conversion: 3 µM P450BSß, KPi pH 7.0, 24 h, values marked a based on substrate depletion. On the procedure: (§1) P450Cla was ordered as synthetic gene and cloned into the pET28a expression vector. […] The dialysis buffer was supplemented with 300 mM NaCl to prevent precipitation of P450Cla. Next, hydroxylation of fatty acid substrates 1a-d (scheme 2) was performed employing purified P450Cla and P450BSß. The oxidant source was varied in case of P450Cla while only H2O2 was used with P450BSß.
Reaction conditions for P450BSß: 3µM P450BSß; KPi buffer (pH 7.0; 0.1 M); 5 % EtOH (cosolvent). […] All products were identified by GC-MS and/or comparison with authentic materials.
(§2) All reactions were performed in closed glass vials for 24 h reaction time at RT with 170 rpm shaking. The reactions were quenched by addition of 100 µl 5 N HCl. Extractions were performed with 500 µl EtOAc containing 0.1 % 1-decanol as internal standard. After drying over Na2SO4, derivatization of acids to corresponding methyl esters was realized by mixing 150 µl of organic phase with 90µl of MeOH prior to supplementation of 20 µl of TMSCHN2 for esterification. Samples were analyzed by GC-FID and GC-MS. Commercial standards of 2-hydroxycaproic acid (2a), 2-hydroxyoctanoic acid (2b) and 2-oxooctanoic acid (4b) were used as references. Calibration curves were obtained from standards 1a-d and 2a-b prepared identically to the reaction mixtures (5 concentration points from 10 µM to 1 mM).

Test [1] relates to P450Cla. The test can be described thus: conversion of fatty acid substrates 1a-d with P450Cla, oxidant H2O2. It is filed as biochemical. Particulars: for 2a-d: H2O2; for Conversion: 3 µM P450Cla, 24 h, RT, values marked a based on substrate depletion. On the procedure: as §1
Reaction conditions for P450Cla: 3µM P450Cla; Tris-HCl (pH 7.5; 0.1 M); 2.5 to 5 % EtOH (cosolvent for the substrate).
as §2

A further test has as its target YcnD (Bacillus subtilis, UniProt P94424). The test can be described thus: oxidation/dehydrogenation of alpha-hydroxy acids 2a-b, YcnD alone. Conditions: 10 mM substrate; YcnD without HICDH; KPi pH 7.5; RT, 24 h.
The test system of the next test is D/L-HICDH. The test is described as follows: oxidation/dehydrogenation of alpha-hydroxy acids 2a-b using D/L-HICDH. It is filed as biochemical. Particulars: 10 mM substrate; KPi pH 7.5; 1 mM NAD+ (also 6.75 mM); RT, 24 h.
In another test the test system is L- and D-HICDH. The test can be described thus: oxidation of alpha-hydroxy acids with L- and D-HICDH, NADH formation at 340 nm. The format is biochemical. Conditions: for NADH concentration: after 1 min reaction time, estimated (Figure 2); for Oxidation of the α-hydroxy acid substrates: 1 or 10 mM substrate, 10 mM NAD+, pH 8.5, UV absorption at 340 nm. On the procedure: A modified protocol for oxidation of 2-hydroxy acids with L-and D-HICDH was established allowing oxidation of 2-hydroxyhexanoic acid and 2-hydroxyoctanoic acid (both commercial standards) that are produced in step 1 of the cascade (Scheme 1). Reactions contained 1 or 10 mM substrate, 1 % DMSO, 10 mM NAD+ and 0.25 mg of L- and D-HICDH (cell free freeze-dried lysates) in a final volume of 1 ml Tris-HCl (pH 8.5, 0.1 M). Oxidation of the α-hydroxy acid substrates was successful as indicated by increasing UV absorption at 340 nm, corresponding to (concomitant) formation of NADH (Figure 2).

The test system of a further test is D/L-HICDH-YcnD. The test is described as follows: oxidation/dehydrogenation of alpha-hydroxy acids 2a-b using D/L-HICDH with NADH-oxidase YcnD. Conditions: 10 mM substrate; with YcnD and catalase; KPi pH 7.5; 1 mM NAD+ (also 6.75 mM); RT, 24 h. It is filed as biochemical.
The test system of test [2] is P450Cla, L- and D-HICDH, leucine-DH. The test is described as follows: three-step one-pot cascade of fatty acid to amino acid (TLC ninhydrin, GC-MS). The format is biochemical. The method, then:
Hydroxylation of all four fatty acid substrates (C4, C6, C8, C10) was performed as described above using 3 µM P450Cla, 10 mM substrate and 2.5 % EtOH in a final volume of 1 ml Tris-HCl (pH 7.5, 0.1 M). H2O2 was supplemented every 30 min (23 times; 36.8 mM total). After 24 h, the hydroxylation reaction (step 1) was stopped by adding 1200 U catalase (1 mg), 20µl of (NH4)2SO4(2.5 M stock) and the pH was adjusted to 8.5 using 1 M NaOH. For step 2 and 3 of the cascade, Land D-HICDH (0.25 mg), 10 mM NAD+ and 5 µl purified leucine-DH were added to the reaction mixture. After 24 h reaction time, 2 µl of the reaction volume were spotted on a TLC plate along with a commercial standard of L-norleucine as reference material (positive control). After elution of products acetic acid/H2O/n-butanol as mobile phase (1:1:3), the plate was stained with ninhydrin and heated gently for colour development. […] The following control reactions were performed to confirm the overall success of the two step cascade leaving one of the following components out of the reaction: 1) P450; 2) L- or D-HICDH; 3) Leu-DH; 4) fatty acid substrate; 5) H2O2; 6) (NH4)2SO4; 7) NAD+. The reaction samples were analyzed by TLC as shown before, but formation of norleucine could not be detected. […]

In test [3] the test system is P450Cla. The test can be described thus: alpha-hydroxylation of selected fatty acids, catalytic and kinetic characterization of P450Cla. The format is biochemical. Particulars: for specific activity U mg^-1: P450Cla 48 kDa, values only relevant at initial rate; for Coupling*: mol product per mol H2O2; for Product: 10 mM fatty acid, 0.5 µM P450Cla (C10), 1 µM (C8, C6), Tris-HCl pH 7.5, RT, triplicate. The method, then: Hydroxylation of selected fatty acids was carried out using a fresh preparation of purified P450Cla. P450Cla was characterised for key catalytic parameters specific activities were determined for three selected substrates as shown in Table 1. Table 1: Catalytic and kinetic characterization of P450Cla for conversion of 10 mM of selected fatty acids. All reactions were performed in triplicate.
Conditions: 0.5 µM P450Cla used in reactions with C10; 1 µM P450Cla used in reactions with C8 and C6; All reactions were performed in Tris-HCl (pH 7.5, 0.1 M) at RT and 170 rpm shaking in closed glass vials; *molProduct^-1 molH2O2^-1; ^§molecular weight of P450Cla is 48 kDa, values only relevant at initial rate.

[4] abbreviates: 5 mM substrate, H2O2 8 mM total.
The mark [5] stands for this setting: 10 mM substrate, H2O2 16 mM total.
[6] abbreviates: 5 mM substrate, H2O2 9.6 mM total.
Setting [7] is: 10 mM substrate, H2O2 19.2 mM total.

Read-outs that look alike come from different tables or passages of the source. Marks after values point to notes of the source that are not given here.

T1 sequence (O31440 whole entry): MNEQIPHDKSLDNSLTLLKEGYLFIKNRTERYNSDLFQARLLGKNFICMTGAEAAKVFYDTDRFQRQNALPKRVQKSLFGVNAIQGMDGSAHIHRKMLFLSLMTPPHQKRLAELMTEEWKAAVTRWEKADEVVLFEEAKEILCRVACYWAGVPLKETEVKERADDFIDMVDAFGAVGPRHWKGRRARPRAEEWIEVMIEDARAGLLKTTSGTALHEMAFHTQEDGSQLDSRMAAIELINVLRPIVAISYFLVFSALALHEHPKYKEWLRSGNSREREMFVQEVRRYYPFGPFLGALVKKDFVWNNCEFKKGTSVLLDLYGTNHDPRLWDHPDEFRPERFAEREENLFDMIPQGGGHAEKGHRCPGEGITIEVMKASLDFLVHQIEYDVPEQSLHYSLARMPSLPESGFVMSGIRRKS
YcnD, sequence (P94424 whole entry): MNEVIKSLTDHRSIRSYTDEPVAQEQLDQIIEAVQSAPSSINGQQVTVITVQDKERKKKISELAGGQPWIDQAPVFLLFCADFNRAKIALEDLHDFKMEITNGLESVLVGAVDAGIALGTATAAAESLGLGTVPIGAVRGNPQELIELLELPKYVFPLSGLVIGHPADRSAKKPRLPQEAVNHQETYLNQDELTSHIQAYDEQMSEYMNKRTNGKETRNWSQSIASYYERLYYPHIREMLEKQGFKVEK

As for `CC(C)C[C@H](N)C(=O)O` [L-leucine], the “Oxidation of the amino acids” value in the test on leucine-DH is listed as “successful”.

`CCCC[C@H](N)C(=O)O` [L-norleucine]: the “Oxidation of the amino acids” value with leucine-DH is reported as “successful”.

As to `CCCCCC(=O)O` [Substrate 1a, hexanoic acid], the 2a-d is reported as 08 mM on CYPBSß (5 mM substrate); 1.1 mM at CYPBSß (10 mM substrate); 3.1 mM in the test with P450Cla [1] (5 mM substrate); 5.1^c mM in the test on P450Cla [1] (10 mM substrate, values marked c outside of calibration range). For the same molecule, the Conversion at CYPBSß (setting [4]) was 16%; on CYPBSß (setting [5]), 11%; in the test with P450Cla [1] (setting [6]), 62%; in the test on P450Cla [1] (setting [7]) it was 51%. Also, the “α/β-Regioselectivity (2a-d vs 3a-d)” value on CYPBSß (5 mM substrate, share of 2a, 3a not detected) was 2a >95%^e; at CYPBSß (10 mM substrate, share of 2a, 3a not detected), 2a >95%^e.

Turning to `CCCCCCCC(=O)O` [Substrate 1b, octanoic acid], the Conversion is given as 96% in the test on P450Cla [1] (setting [6]) and greater than 99% in the test with P450Cla [1] (setting [7]).

Consider `CCCCCCCCCC(=O)O` [Substrate 1c, decanoic acid], for which the Conversion on CYPBSß (setting [4]) is reported as 54^a %; on CYPBSß (setting [5]), 46^a %; in the test on P450Cla [1] (setting [6]), >99^a %; in the test on P450Cla [1] (setting [7]) it was >99^a %. Further, the “α/β-Regioselectivity (2a-d vs 3a-d)” value on CYPBSß (5 mM substrate, ratio α-hydroxy/β-hydroxy product) was 2c/3c 64/36; on CYPBSß (10 mM substrate, ratio α-hydroxy/β-hydroxy product) it was 2c/3c 56/44.

For `CCCCC(O)C(=O)O` (stereo not shown) [Substrate 2a, 2-hydroxycaproic acid], the “α-Ketoacid 4a/b detected [Y/N]” value at YcnD, with D/L-HICDH and with D/L-HICDH-YcnD was “No” throughout. For the same molecule, the NADH concentration in the test on L- and D-HICDH (1 mM substrate) is listed as 45 µM; with L- and D-HICDH (10 mM substrate), 142 µM. Further, the “Oxidation of the α-hydroxy acid substrates” value in the test with L- and D-HICDH was “successful”.

Regarding `CCCCCCC(O)C(=O)O` (stereo not shown) [Substrate 2b, 2-hydroxyoctanoic acid], the entries for the “α-Ketoacid 4a/b detected [Y/N]” value on YcnD, in the test with D/L-HICDH and in the test on D/L-HICDH-YcnD were “No”, “No” and “Yes (traces)”, respectively. For the same molecule, the NADH concentration is given as 41 µM with L- and D-HICDH (1 mM substrate); 126 µM in the test on L- and D-HICDH (10 mM substrate). Also, the “Oxidation of the α-hydroxy acid substrates” value in the test on L- and D-HICDH was “successful”.

With `CCCCCC(=O)O` [Substrate C6, hexanoic acid], in test [2] (10 mM hexanoic acid, Figure 4), the “production of norleucine (GC-MS after derivatization)” value is “successful production of norleucine”. For the same molecule, the “formation of norleucine / amino acid (TLC, ninhydrin staining)” value in test [2] (10 mM substrate, step 1 24 h, steps 2 and 3 24 h, one pot) was “distinct red spot”. Further, in the test with P450Cla [3], the “Selectivity [% α-OH]” value is greater than 90% and the specific activity is on record as no less than 1 U mg^-1. In the test with P450Cla [3] (5 min, H2O2 0.8 mM), the “Selectivity [% α-OH]” value was greater than 95%, the TON was 139 min⁻¹, the TTN was determined as 695 and the “specific activity U mg^-1” value amounted to 2.9 U mg^-1. In addition, the “Coupling*” value with P450Cla [3] (5 min, H2O2 0.8 mM) is listed as 87%. In the test with P450Cla [3] (15 min, H2O2 0.8 mM), the “Selectivity [% α-OH]” value is greater than 95%, the TON was 47 min⁻¹, the TTN worked out at 706 and the “specific activity U mg^-1” value turned out to be 1.0 U mg^-1. Further, the “Coupling*” value in the test on P450Cla [3] (15 min, H2O2 0.8 mM) was 88%. Also, in the test on P450Cla [3] (30 min, H2O2 1.6 mM), the “Selectivity [% α-OH]” value is greater than 95%, the TON was 29 min⁻¹, the TTN is on record as 880 and the “specific activity U mg^-1” value was found to be 0.6 U mg^-1. Besides, in the test on P450Cla [3] (30 min, H2O2 1.6 mM), the “Coupling*” value was 55%.

`CCCCCCCC(=O)O` [Substrate C8, octanoic acid] yielded a specific activity with P450Cla [3] of no less than 1 U mg^-1. In the test on P450Cla [3] (5 min, H2O2 0.8 mM), the Product is given as 0.49 ± 0.02 mM, the TON was 98 min⁻¹, the TTN is given as 488 and the “specific activity U mg^-1” value worked out at 2.0 U mg^-1. Further, the “Coupling*” value in the test with P450Cla [3] (5 min, H2O2 0.8 mM) is given as 61%. In the test with P450Cla [3] (15 min, H2O2 0.8 mM), the Product amounted to 0.51 ± 0.01 mM, the TON came out at 34 min⁻¹, the TTN came out at 506 and the “specific activity U mg^-1” value is 07 U mg^-1. Further, the “Coupling*” value with P450Cla [3] (15 min, H2O2 0.8 mM) came out at 63%. Further, in the test on P450Cla [3] (30 min, H2O2 1.6 mM), the Product is reported as 0.94 ± 0.05 mM, the TON was found to be 31 min⁻¹, the TTN came out at 938 and the “specific activity U mg^-1” value was 0.7 U mg^-1. Also, the “Coupling*” value with P450Cla [3] (30 min, H2O2 1.6 mM) is reported as 59%.

The values are drawn from patent EP3095872A1, “A METHOD OF PRODUCING ALPHA AMINO ACIDS” (Evonik Degussa GmbH, priority 2015, dated 2016).
